Consider 1 molecule from PMC12426935, “On-Cell Saturation Transfer Difference NMR Spectroscopy on Ion Channels: Characterizing Negative Allosteric Modulator Binding Interactions of P2X7” (Journal of the American Chemical Society, 2025).

One assay deals with T1, M105A hP2X7 (Homo sapiens, UniProt Q99572, M105A).
T1 sequence (Q99572 1-595 M105A): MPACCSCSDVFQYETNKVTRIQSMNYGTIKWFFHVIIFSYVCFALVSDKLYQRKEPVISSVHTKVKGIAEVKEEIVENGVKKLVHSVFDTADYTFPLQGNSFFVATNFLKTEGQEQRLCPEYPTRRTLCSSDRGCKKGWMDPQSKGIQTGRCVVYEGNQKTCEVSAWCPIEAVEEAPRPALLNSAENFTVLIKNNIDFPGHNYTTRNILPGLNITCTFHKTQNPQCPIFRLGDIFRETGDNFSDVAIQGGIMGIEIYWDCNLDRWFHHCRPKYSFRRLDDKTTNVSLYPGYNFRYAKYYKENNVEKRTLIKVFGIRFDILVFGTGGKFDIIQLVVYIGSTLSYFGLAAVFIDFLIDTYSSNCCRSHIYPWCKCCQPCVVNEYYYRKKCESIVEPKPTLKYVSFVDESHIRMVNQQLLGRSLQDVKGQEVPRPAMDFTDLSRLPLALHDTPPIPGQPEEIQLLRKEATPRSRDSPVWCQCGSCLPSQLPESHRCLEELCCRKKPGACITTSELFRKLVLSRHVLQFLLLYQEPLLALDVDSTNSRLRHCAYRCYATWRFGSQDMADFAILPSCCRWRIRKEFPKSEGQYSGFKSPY
Put plainly: fura-2 intracellular calcium assay on HEK-293 stable cell line expressing NAM-site mutant M105A hP2X7. Conditions: for IC50: n = 3. Type of assay: cell-based. As for the experimental part: (§1) Transfection was performed using lipofectamine 2000 (Fisher Scientific), and cells were subjected to Geneticin (800 μg/mL) selection for 2–3 weeks. This was followed by single cell cloning by limiting dilution in 96-well plates. Individual clones were selected for further study based on ATP-induced TO-PRO-3 uptake on a BD Cytoflex flow cytometer. Cell lines were maintained in DMEM:F12 media supplemented with 10% fetal bovine serum (PanBiotech), penicillin and streptomycin (Fisher Scientific) and kept in a humidified incubator with 5% CO2. Stable P2X7-expressing cells were kept under Geneticin selection at a concentration of 400 μg/mL. Passaging was performed twice weekly using 0.25% Trypsin-EDTA (Fisher Scientific).
(§2) P2X7 responses were measured by monitoring intracellular calcium responses using fura-2AM loaded cells. Cells were plated at 2–2.5 × 10^4 cells/well the day before experiments in 96-well plates (NUNC) coated with 50 μg/mL poly-D-lysine (Merck Millipore). A loading buffer containing 2 μM fura-2AM (HelloBio) and 250 μM sulfinpyrazone (Merck Millipore) in a low divalent buffer (145 mM NaCl, 5 mM KCl, 0.2 mM CaCl2, 10 mM HEPES, 13 mM glucose, pH 7.3) was added to cells for 45 min at 37 °C. After loading, the buffer was removed and replaced with calcium-containing extracellular solution (145 mM NaCl, 5 mM KCl, 2 mM CaCl2, 10 mM HEPES, 13 mM glucose, pH 7.3). Responses were measured using a Flexstation 3 plate reader (Molecular Devices) with dual excitation wavelengths of 340 and 380 nm and single emission wavelength of 510 nm. The sample interval was 3.5 s, and each well was recorded for 180 s. Fura-2 ratios were calculated in Softmax Pro v5.4; zero baseline was applied, and responses were measured as normalized area under the curve (AUC). Dose inhibition curves were plotted using GraphPad Prism v6 nonlinear regression (three parameter fit) and log IC50 values reported.
Background: Calcium flux is commonly read through the fluorescence of an indicator in the cells.

In the next assay the target is T2, mouse P2X7 (mP2X7) (Mus musculus, UniProt Q9Z1M0).
T2 construct: expressed in transfected cells
T2 sequence (Q9Z1M0 1-595): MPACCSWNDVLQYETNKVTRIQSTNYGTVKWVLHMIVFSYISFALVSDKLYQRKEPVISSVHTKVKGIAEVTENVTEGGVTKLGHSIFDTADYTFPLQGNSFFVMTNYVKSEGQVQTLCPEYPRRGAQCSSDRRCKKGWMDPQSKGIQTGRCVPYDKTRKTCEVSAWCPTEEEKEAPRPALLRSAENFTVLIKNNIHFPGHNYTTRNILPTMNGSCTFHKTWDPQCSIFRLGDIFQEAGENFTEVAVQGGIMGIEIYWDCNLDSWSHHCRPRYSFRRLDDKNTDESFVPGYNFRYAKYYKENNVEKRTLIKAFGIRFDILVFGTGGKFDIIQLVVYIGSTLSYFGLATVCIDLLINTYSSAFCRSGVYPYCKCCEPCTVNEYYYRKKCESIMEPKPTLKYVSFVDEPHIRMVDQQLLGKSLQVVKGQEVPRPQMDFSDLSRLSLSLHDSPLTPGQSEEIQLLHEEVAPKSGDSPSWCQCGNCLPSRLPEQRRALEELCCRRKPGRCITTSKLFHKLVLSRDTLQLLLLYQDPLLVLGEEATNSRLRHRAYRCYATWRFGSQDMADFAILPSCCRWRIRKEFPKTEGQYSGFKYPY
In words: fura-2 intracellular calcium assay on HEK-293 stable cell line expressing mouse P2X7. Format: cell-based. As for the experimental part: as §1, with “Genetically edited HEK-293 cells lacking P2Y2 receptors were used to generate stable cell lines expressing human P2X7 (hP2X7), mouse P2X7 (mP2X7), rat P2X7 (rP2X7), or mutants of the hP2X7 NAM site (F88A, M105A, and F103A). Transfection” for “Transfection”
as §2, with “Dose inhibition curves were plotted using GraphPad Prism v6 nonlinear regression (three parameter fit) and log IC50 values reported.” left out

Structures are written as SMILES. Where two headings read alike, the source gives them in different places.

Broadly, the IC50 is the concentration that inhibits the measured activity by half. In the case of `O=C(NCC1(N2CCN(c3ccccc3)CC2)CCOCC1)c1cccnc1Sc1ccccc1` [JNJ-47965567], the IC50 was 0.0456 µM on M105A hP2X7 (M105A hP2X7, agonist ATP, log IC50 ± standard error, read-out: Log IC50 (converted)); 0.045 µM on M105A hP2X7 (M105A hP2X7, agonist ATP, mean in brackets, read-out: mean IC50); 0.0287 µM at M105A hP2X7 (M105A hP2X7, agonist BzATP, mean in brackets, read-out: mean IC50); 0.125 µM on mouse P2X7 (mP2X7) (Mouse P2X7 (Table 1), mean in brackets, n = 3). Moreover, on M105A hP2X7 (M105A hP2X7 vs hP2X7), the “increase in IC50 at M105A-hP2X7 relative to hP2X7” value is “less than 5 fold”. Besides, the “difference between hP2X7 and mP2X7 IC50 values” at mouse P2X7 (mP2X7) (mP2X7 vs hP2X7) was determined as 13 fold.
